# In patent publication US11622975B2, “Compositions and methods for improved honey bee health” (priority 2019, dated 2023):
# Columns and labels:
# [1] = tested on: honey bee colonies; assay: Overwintering field trial of honey bee colonies treated with HPBCD and acaricide; format: in vivo; conditions: for colony (hive) loss: fed October to December, surviving hives counted in March, 10 colonies per treatment, no treatment about 50%; for total frames containing bees: measured in March after overwintering, no treatment 50 frames
# Protocol: This example illustrates the use of HPBCD in a field setting. Four treatments with 10 colonies per treatment were performed as follows: (i) No HPBCD and no acaricide (No Treatment control), (ii) acaricide alone (Amitraz), (iii) HPBCD, and (iv) a combination of Amitraz and HPBCD. Colonies were fed treatments using a top box feeder in a “Langstroth Hive” from October to December, then surviving hives were counted in March of the following year and numbers of Langstroth frames containing bees were measured. About 50% of the colonies that received no treatment were lost; while it is a high level of loss it was within the expected range for hives that received no extra management besides sugar syrup supplementation (which agrees with the national average for untreated colonies). The group receiving only Amitraz, the current industry standard for mite control, lost about 20% of the colonies. HPBCD on its own was able to reduce hive loss to about 30%. […] Not intending to be bound by theory, one possible explanation for this profound effect is that Amitraz was lethal to mites based on contact (LC50), while the possible sub lethal and chronic affects for the honey bee were dosage based (LD50) as evidenced by slower behavioral response time (see e.g., De Mattos, 2017). It is likely the bees ingest the HPBCD and the Amitraz was sequestered rendering its effects on the bee diminished, while the groups that received no HPBCD were still susceptible to the effects of the acaricide.
# [2] = tested on: honey bee; conditions: half of previously published honey bee LD50; used as dose in the cage study; cited from earlier work
# [3] = tested on: honey bees; assay: Cage survival study of bees fed sublethal doses of pesticides with or without MBCD; format: in vivo, Apis mellifera
# Protocol: (§1) This example illustrates the baseline effects of the inventive composition in the absence of an exogenous stressor. Samples of European honey bees, Apis mellifera, were collected from colonies maintained in the apiaries of the USDA-ARS Bee Research Laboratory in Beltsville, Md. Frames with emerging brood were removed from colonies and individually placed in a mesh-walled cage. The cages were transferred to an insect growth chamber at 34° C. and 70% humidity. After 24 hrs incubation, newly emerged honey bees were transferred to a honey bee rearing cup, with a top-feeder design, allowing for easy sampling of honey bees (see e.g., Evans et al., 2009). A 3 mL syringe filled with 50% sugar syrup mixture was inverted over the top of the rearing cup to provision the caged honey bees. The honey bees were also provisioned with 1.5 grams of honey bee pollen supplement in patty form (e.g., Bee-Pro®, available from Mann Lake Ltd, Hackensack, Minn.), supplemented 10% (w/w) with ground fresh pollen, and placed on cotton paper on the cup cage bottoms. Syringes and sucrose solution were changed every 3 days and cotton paper was changed once per week.
# In this example, whether MBCD mitigates the toxicity of certain pesticides associated with honey bee death was investigated. Not intending to be theory-bound, it was hypothesized that the binding of hydrophobic pesticide molecules to CDs would translate into health benefits to honey bees that were exposed to such pesticides. Samples of honey bees were collected as in example 1. A cage study (n=30 bees per cage & 2 replicate cages per treatment) was performed using 50% sucrose solution that had been spiked with sublethal doses of common pesticides that are known to be toxic to honey bees to measure the ability of treatment MBCD compositions to confer protection to the honey bees. Analytical grade standards of clothianidin, imidacloprid, and chlorpyrifos (available from MilliporeSigma, St. Louis, Mo.) were first dissolved in acetone, then diluted to their final concentrations (Table 2) in 50% sugar syrup. The listed sublethal doses were derived from taking half of the previously published honey bee LD50s (referred to a “LD25” in Table 2). The solutions were administered via 3 mL syringes in rearing cups as previously stated. Fresh pesticide solutions were mixed every 3 days to coincide with syringe replacement (see e.g., Williamson et al., 2013; Li et al, 2017).
# Median survival is represented for each treatment by (# days). Curves were compared using Log-Rank Mantel-Cox (p<0.0001 for clothianidin versus control, 1, or 10 μg MBCD; p<0.001 for chlorpyrifos versus control or 1 μg MBCD) and Gehan-Breslow-Wilcoxon (p<0.0001 for clothianidin versus control, 1, or 10 μg MBCD; p<0.05 for chlorpyrifos versus control or 1 μg MBCD). […] The chlorpyrifos treatment was able to reduce median lifespan on its own to 26 days compared to the 36 days of the control (FIG. 2C). While a dosage of 10 μg/bee MBCD did increase median lifespan to 30 days, there was not a significant change in median lifespan.
# [4] = tested on: Deformed wing virus (DWV); assay: Viral load (RT-qPCR) in virus-infected honey bees after MBCD treatment; format: in vivo, Apis mellifera; conditions: for decrease in DWV (+) sense viral genome / decrease in DWV (−) sense replicative strand: 10 μg/bee MBCD; for decrease in DWV (+) sense viral genome: versus untreated infected bees
# Protocol: The presence of DWV and Varroa destructor was determined as follows. Total RNA was extracted from whole body 12 individual honey bees using the TRIzol Reagent® (available from Thermo Fisher Scientific, Waltham, Mass.) by manufacturers specifications, and stored at −80° C. First-strand cDNA was synthesized using the Superscript III Reverse Transcriptase (available in a kit from Thermo Fisher Scientific). Briefly, each reaction contained: 3 μl total bee RNA (˜1 μg/μl), 1 μl of 10 mM dNTPs, 1 μl random primers (0.15 μg/μl), 1 μL of Oligo(dT), 1 μl of 0.1 M DTT (0.1 M), 4 μl 5×First-Strand Buffer, 1 uL of 200 U/μL RnaseOUT, 1 μl of 200 U/μl SuperScript III Reverse Transcriptase, and 7 μl Nuclease-free water. The reaction mixture was incubated at 25° C. for 5 min, 55° C. for 2 hrs, and 70° C. for 15 min, then stored at −20° C. until use. Transcript levels (RT-qPCR analysis) were quantified using the Brilliant III Ultra-Fast SYBR Green® QPCR Master Mix (Agilent Technologies, Inc., Santa Clara, Calif.) on a CFX384 Touch Real Time PCR Detection System (Bio-Rad Laboratories, Inc., Hercules, Calif.). Samples were incubated at 95° C. for 5 min, followed by 40 cycles of 95° C. for 20 s, 59° C. for 20 s, and 72° C. for 20 s. Thereafter, a melt curve analysis from 65° C. to 95° C. was performed to confirm product specificity. For the detection and quantification of negative stranded bee viruses, replication intermediates, TAG-DWV primers were substituted for random primers or oligos (see e.g., Boncristiani et al., 2009). The fold difference in viral concentration among different treatment groups was determined using the comparative Ct method (2^−ΔΔCT method) (see e.g., Livak & Schmittgen, 2001). Calibrators were chosen as the highest average treatment ΔCt value for each experiment.
# Emerging bees that had non-deformed wings (i.e., asymptomatic) were selected for a cage study (n=30 bees per cage & 6 replicate cages per treatment). […] Virally infected untreated bees were compared to bees fed 10 μg/bee MBCD in 50% sucrose solution. In FIG. 6A, DWV (+) sense viral genome titers were compared 3 and 6 days after treatment. An unpaired, 2-tailed Student's T-Test was performed to determine statistical significance (p<0.05 at 3 days feeding; N.S.=Non-significant 6 days after treatment). In FIG. 6B, DWV (−) sense replicative strand titers were compared 3 and 6 days after treatment. An unpaired, 2-tailed Student's T-Test was performed to determine statistical significance (p<0.0001 for 3 days post treatments; p=0.049 for 6 days post treatment). The “★” denotes the sample chosen as the 2^−ΔΔCT calibrator and bars denote standard error.
# [5] = tested on: honey bees; assay: MBCD and HPBCD alpha-tocopherol inclusion complex treatment of clothianidin-exposed bees, survival; format: in vivo, Apis mellifera; conditions: clothianidin treatment alone, n=280 bees/treatment
# Protocol: MBCD & HPBCD alpha-tocopherol inclusion complexes were formulated using 2.33 μL of +-(α)-tocopherol (1,000 I.U., available from MilliporeSigma, St. Louis, Mo.) added to 1 g of MBCD or HPBCD to arrive at a concentration of approximately 20 I.U. of tocopherol/bee/day and 10 μg (or other indicted dosage) of BCD/bee/day. The resulting powder can be stored at −20° C. or immediately dissolved into 4.166 L of water containing 50% sucrose. The resulting solution is stable and stored at 4° C. until further use. The comparative effects of MBCD versus HPBCD treated bees are shown for lab-controlled environment (n=280 bees/treatment).
# [6] = tested on: honey bees infected with Deformed wing virus; assay: Weight of virus-infected honey bees after MBCD treatment; format: in vivo, Apis mellifera; conditions: 10 μg/bee MBCD
# Protocol: Untreated bees fed only 50% sucrose were compared to bees receiving 10 μg/bee MBCD in 50% sucrose (FIG. 7). Median survival was represented for each treatment by (# days). Curves were compared using Log-Rank Mantel-Cox (p<0.001) and Gehan-Breslow-Wilcoxon (p<0.01). […] The mass ([…]) of control bees was compared to bees fed 10 μg/bee MBCD. Bees were measured 3 (FIG. 8A) and 6 (FIG. 8B) days post feeding. With average bee weight higher along with more bees present, the amount of work accomplished in the hive as a whole would be expected to increase. An unpaired, 2-tailed Student's T-Test was performed to determine statistical significance (p<0.05 at 3 days) and bars denote standard error.
# [7] = tested on: European honey bees, Apis mellifera; assay: Longevity of healthy adult worker bees in cage study after MBCD treatment; format: in vivo; conditions: healthy newly emerged bees, versus control
# Protocol: as §1
# Newly emerged honey bees were placed in individual cages (n=30 bees per cage & 2 replicate cages per treatment) and fed using a syringe filled with 50% sucrose alone or supplemented with either 1, 10, or 100 μg MBCD per bee/per week. […]
# [8] = tested on: honey bees infected with Deformed wing virus; assay: Survival of virus-infected honey bees after MBCD treatment; format: in vivo, Apis mellifera; conditions: 10 μg/bee MBCD in 50% sucrose, untreated 6 days
# Protocol: (§2) The presence of DWV and Varroa destructor was determined as follows. Total RNA was extracted from whole body 12 individual honey bees using the TRIzol Reagent® (available from Thermo Fisher Scientific, Waltham, Mass.) by manufacturers specifications, and stored at −80° C. First-strand cDNA was synthesized using the Superscript III Reverse Transcriptase (available in a kit from Thermo Fisher Scientific). […] Transcript levels (RT-qPCR analysis) were quantified using the Brilliant III Ultra-Fast SYBR Green® QPCR Master Mix (Agilent Technologies, Inc., Santa Clara, Calif.) on a CFX384 Touch Real Time PCR Detection System (Bio-Rad Laboratories, Inc., Hercules, Calif.). […] For the detection and quantification of negative stranded bee viruses, replication intermediates, TAG-DWV primers were substituted for random primers or oligos (see e.g., Boncristiani et al., 2009). The fold difference in viral concentration among different treatment groups was determined using the comparative Ct method (2^−ΔΔCT method) (see e.g., Livak & Schmittgen, 2001). […]
# Untreated bees fed only 50% sucrose were compared to bees receiving 10 μg/bee MBCD in 50% sucrose (FIG. 7). […] Bees were measured 3 (FIG. 8A) and 6 (FIG. 8B) days post feeding. […]
# [9] = tested on: glutathione-S-transferase S1 (GSTS1); assay: Transcript levels of honey bee detoxification gene (RT-qPCR); format: in vivo, Apis mellifera; conditions: clothianidin plus 10 μg/bee MBCD versus pesticide only, after 3 days of feeding
# Protocol: Bees receiving clothianidin were compared to bees receiving the pesticide with the addition of 1 μg or 10 μg/bee MBCD after 3 days of feeding. One-way ANOVA with Tukey multiple comparisons was performed to determine any statistical significance (p<0.05 for Clothianidin versus Clothianidin+10 μg/bee MBCD). The “*” denotes the sample chosen as the 2^−ΔΔCT calibrator. […] Pesticides removed from the immediate environment results in less energy dedicated to detoxification and excretion.
# as §2, with “C.” for “C. First-strand cDNA was synthesized using the Superscript III Reverse Transcriptase (available in a kit from Thermo Fisher Scientific).”
# [10] = bees fed pesticide alone at sublethal dose in 50% sucrose, control 36 days
compound,measurement,setting,value
"Cc1ccc(/N=C/N(C)/C=N/c2ccc(C)cc2C)c(C)c1 [Amitraz, amitraz, reference compound]",colony (hive) loss,[1],about 20%
same,total frames containing bees,[1],48.5 frames
"CCOP(=S)(OCC)Oc1nc(Cl)c(Cl)cc1Cl [Chlorpyrifos, chlorpyrifos, reference compound]",Sublethal LD25,[2],0.43 ng/bee
same,median lifespan,[3]; [10],26 days
"CN/C(=N\[N+](=O)[O-])NCc1cnc(Cl)s1 [Clothianidin, clothianidin, reference compound]",Sublethal LD25,[2],1.0 ng/bee
same,DWV levels,[4]; clothianidin treated bees compared to bees supplemented with 20 ppm MBCD,higher levels of DWV
same,median lifespan,[3]; [10],13.5 days
same,median lifespan,[5],22 days
"CC(O)COC[C@H]1O[C@@H]2O[C@H]3[C@H](O)[C@@H](O)[C@@H](O[C@H]4[C@H](O)[C@@H](O)[C@@H](O[C@H]5[C@H](O)[C@@H](O)[C@@H](O[C@H]6[C@H](O)[C@@H](O)[C@@H](O[C@H]7[C@H](O)[C@@H](O)[C@@H](O[C@H]8[C@H](O)[C@@H](O)[C@@H](O[C@H]1[C@H](O)[C@H]2O)O[C@@H]8COCC(C)O)O[C@@H]7COCC(C)O)O[C@@H]6COCC(C)O)O[C@@H]5COCC(C)O)O[C@@H]4COCC(C)O)O[C@@H]3COCC(C)O (stereo partly drawn) [HPBCD, hydroxypropyl-β-cyclodextrin]",colony (hive) loss,[1],about 30%
same,total frames containing bees,[1],53.5 frames
"O=[N+]([O-])NC1=NCCN1Cc1ccc(Cl)nc1 [Imidacloprid, imidacloprid, reference compound]",Sublethal LD25,[2],4.3 ng/bee
same,median lifespan,[3]; [10],32 days
methyl-β-cyclodextrin [MBCD],bee weight versus control,[6]; 3 days after feeding,significantly higher weight
same,bee weight versus control,[6]; 6 days after feeding,statistically comparable
same,decrease in DWV (+) sense viral genome,[4]; 3 days after treatment,~2 fold
same,decrease in DWV (−) sense replicative strand,[4]; 3 days post treatment,approximately 3 fold
same,decrease in DWV (−) sense replicative strand,[4]; 6 days post treatment,~2 fold
same,decrease in DWV (+) sense viral genome,[4]; 6 days post treatment,non-significant decrease
same,increase in median lifespan,[7]; 1 μg MBCD per bee/per week in 50% sucrose,9 days
same,increase in median lifespan,[7]; 10 μg MBCD per bee/per week in 50% sucrose,6.5 days
same,median lifespan,[8],9 days
same,decrease in GSTS1 transcript level,[9],1.5 fold
same,median lifespan,"[3]; chlorpyrifos plus 1 μg/bee MBCD, chlorpyrifos alone 26 days",36.5 days
same,median lifespan,"[3]; chlorpyrifos plus 10 μg/bee MBCD, chlorpyrifos alone 26 days",30 days
same,median lifespan,"[3]; clothianidin plus 1 μg/bee MBCD, clothianidin alone 13.5 days",31 days
same,median lifespan,"[3]; clothianidin plus 10 μg/bee MBCD, clothianidin alone 13.5 days",40 days
same,median lifespan,"[3]; imidacloprid plus 1 μg/bee MBCD, imidacloprid alone 32 days",31 days
same,median lifespan,"[3]; imidacloprid plus 10 μg/bee MBCD, imidacloprid alone 32 days",36 days
